In patent US4260682A, “High sensitivity assays for angiotensin converting enzyme” (priority 1979, dated 1981):
Square brackets hold non-standard residues; d marks the D form. Ends that are not written are not given here. Peptide text beside a SMILES is read from it. pGlu = O=C1CC[C@@H](C(=O)O)N1

How the values were obtained:
ACE [1] = details: cited from earlier work
ACE [2] = target: T1, ACE (Oryctolagus cuniculus, UniProt P12822); details: cited from earlier work
T1 sequence (P12822 34-1310): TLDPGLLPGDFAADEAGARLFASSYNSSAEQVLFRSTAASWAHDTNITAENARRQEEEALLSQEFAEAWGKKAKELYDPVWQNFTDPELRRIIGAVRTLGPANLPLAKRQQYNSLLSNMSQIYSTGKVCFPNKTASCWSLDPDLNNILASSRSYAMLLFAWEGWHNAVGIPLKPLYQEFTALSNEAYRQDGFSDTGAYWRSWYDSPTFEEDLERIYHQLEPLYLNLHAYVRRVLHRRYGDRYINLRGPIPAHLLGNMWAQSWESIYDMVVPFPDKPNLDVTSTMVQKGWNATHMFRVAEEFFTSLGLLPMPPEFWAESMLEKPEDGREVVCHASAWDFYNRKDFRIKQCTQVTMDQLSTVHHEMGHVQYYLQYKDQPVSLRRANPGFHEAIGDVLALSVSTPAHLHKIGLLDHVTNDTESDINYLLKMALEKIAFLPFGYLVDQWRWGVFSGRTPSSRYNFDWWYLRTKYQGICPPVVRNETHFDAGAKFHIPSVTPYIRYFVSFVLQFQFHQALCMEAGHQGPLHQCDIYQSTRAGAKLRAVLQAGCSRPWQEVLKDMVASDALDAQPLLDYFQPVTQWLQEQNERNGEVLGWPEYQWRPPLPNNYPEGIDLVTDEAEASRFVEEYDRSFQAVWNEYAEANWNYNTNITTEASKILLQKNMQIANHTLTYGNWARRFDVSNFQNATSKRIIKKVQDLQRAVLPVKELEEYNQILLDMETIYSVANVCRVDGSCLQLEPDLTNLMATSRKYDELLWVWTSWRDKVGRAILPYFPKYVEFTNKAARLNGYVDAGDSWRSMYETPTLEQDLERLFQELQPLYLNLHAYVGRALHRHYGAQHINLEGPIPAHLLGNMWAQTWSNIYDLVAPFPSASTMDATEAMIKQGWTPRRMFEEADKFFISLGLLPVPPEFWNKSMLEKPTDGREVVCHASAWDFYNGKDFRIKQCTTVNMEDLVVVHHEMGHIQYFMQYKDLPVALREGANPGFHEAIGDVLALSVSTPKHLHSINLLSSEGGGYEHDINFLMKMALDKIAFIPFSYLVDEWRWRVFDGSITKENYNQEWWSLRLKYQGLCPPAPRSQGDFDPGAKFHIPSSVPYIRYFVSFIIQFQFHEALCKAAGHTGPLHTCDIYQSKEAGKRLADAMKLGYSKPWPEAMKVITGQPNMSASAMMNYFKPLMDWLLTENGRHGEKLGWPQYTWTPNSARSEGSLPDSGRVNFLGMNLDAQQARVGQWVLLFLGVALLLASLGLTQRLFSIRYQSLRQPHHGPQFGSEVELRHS

ACE [3] = test: Sulfate and chloride effects on ACE catalysed hydrolysis (general description); assay type: biochemical; details: 0.05 M Hepes, pH 8.0
Excerpt: An assay for ACE, using HipHisLeu as substrate, is herewith described. The assay is more sensitive than any heretofore disclosed using HipHisLeu as substrate. Maximum sensitivity is achieved by the inclusion of sulfate ions, preferably as sodium sulfate, in the reaction mixture. When 0.1 M NaCl is present in the reaction mixture, sulfate ions are stimulatory from 0.1 M to at least 1.1 M. Maximum stimulation occurs in the range from 0.75 M to 1.1 M Na2 SO4.
(§1) An even more sensitive assay for ACE activity has been developed using the novel compound ^3 H-benzoylPheAlaPro as substrate. This new substrate can be used to assay ACE in human urine in incubations as short as 15 minutes. The response of this substrate to ions is strikingly different from the response of HipHisLeu. […] This difficulty has been solved by the proper choice of extracting solvent. While a variety of organic solvents may be suitable for the extraction step, it is preferred to employ toluene. Approximately 88% of ^3 H-benzoylPhe enters the toluene phase while only 6% of the unhydrolyzed substrate enters the toluene phase, when toluene and the acidified reaction mixture are in approximately equal volumes at room temperatures.
The enzyme is active over a broad pH range with a maximum around pH 8.0, but is at least about 50% active in the range pH 7.0-pH 8.8, for both HipHisLeu and benzoylPheAlaPro. Although the enzyme is active in a variety of buffer systems known in the art, it is preferred for convenience, when using benzoylPheAlaPro as substrate, to conduct the assays in 0.05 M Hepes buffer, pH 8.0 containing 0.15 M sodium chloride. Detailed protocols for carrying out the assay are given in the examples. […] The preferred concentration range is 1×10^-9 M to 7×10^- 5 M.

ACE [4] = target: ACE (Homo sapiens, UniProt P12821); test: Comparison of sensitivity of ACE radioassays; assay type: biochemical
Excerpt: A comparison of the sensitivity of the disclosed assay methods with each other and with prior art assays may be made by considering assays which depend upon measuring the radioactivity of the remnant reaction product. A prior art assay of this type, using ^3 H-HipGlyGly as substrate has been described (Ryan and Chung, supra). Of the two assays disclosed herein, the sulfate stimulated hydrolysis of ^3 H-HipHisLeu is approximately 20 times more sensitive, and the ^3 H-benzoylPheAlaPro assay is about 10 times more sensitive still. The latter is therefore approximately 200 times more sensitive than the assay using ^3 H-HipGlyGly.

Guinea pig serum ACE = target: T2, Guinea pig serum ACE (Cavia porcellus, UniProt H0UWL7); test: Kinetics of benzoyl-Phe-Ala-Pro hydrolysis; details: read-out: apparent Km; 0.05 M Hepes, pH 8.0, 0.15 M NaCl; Lineweaver and Burke plot
T2 sequence (H0UWL7 33-1234): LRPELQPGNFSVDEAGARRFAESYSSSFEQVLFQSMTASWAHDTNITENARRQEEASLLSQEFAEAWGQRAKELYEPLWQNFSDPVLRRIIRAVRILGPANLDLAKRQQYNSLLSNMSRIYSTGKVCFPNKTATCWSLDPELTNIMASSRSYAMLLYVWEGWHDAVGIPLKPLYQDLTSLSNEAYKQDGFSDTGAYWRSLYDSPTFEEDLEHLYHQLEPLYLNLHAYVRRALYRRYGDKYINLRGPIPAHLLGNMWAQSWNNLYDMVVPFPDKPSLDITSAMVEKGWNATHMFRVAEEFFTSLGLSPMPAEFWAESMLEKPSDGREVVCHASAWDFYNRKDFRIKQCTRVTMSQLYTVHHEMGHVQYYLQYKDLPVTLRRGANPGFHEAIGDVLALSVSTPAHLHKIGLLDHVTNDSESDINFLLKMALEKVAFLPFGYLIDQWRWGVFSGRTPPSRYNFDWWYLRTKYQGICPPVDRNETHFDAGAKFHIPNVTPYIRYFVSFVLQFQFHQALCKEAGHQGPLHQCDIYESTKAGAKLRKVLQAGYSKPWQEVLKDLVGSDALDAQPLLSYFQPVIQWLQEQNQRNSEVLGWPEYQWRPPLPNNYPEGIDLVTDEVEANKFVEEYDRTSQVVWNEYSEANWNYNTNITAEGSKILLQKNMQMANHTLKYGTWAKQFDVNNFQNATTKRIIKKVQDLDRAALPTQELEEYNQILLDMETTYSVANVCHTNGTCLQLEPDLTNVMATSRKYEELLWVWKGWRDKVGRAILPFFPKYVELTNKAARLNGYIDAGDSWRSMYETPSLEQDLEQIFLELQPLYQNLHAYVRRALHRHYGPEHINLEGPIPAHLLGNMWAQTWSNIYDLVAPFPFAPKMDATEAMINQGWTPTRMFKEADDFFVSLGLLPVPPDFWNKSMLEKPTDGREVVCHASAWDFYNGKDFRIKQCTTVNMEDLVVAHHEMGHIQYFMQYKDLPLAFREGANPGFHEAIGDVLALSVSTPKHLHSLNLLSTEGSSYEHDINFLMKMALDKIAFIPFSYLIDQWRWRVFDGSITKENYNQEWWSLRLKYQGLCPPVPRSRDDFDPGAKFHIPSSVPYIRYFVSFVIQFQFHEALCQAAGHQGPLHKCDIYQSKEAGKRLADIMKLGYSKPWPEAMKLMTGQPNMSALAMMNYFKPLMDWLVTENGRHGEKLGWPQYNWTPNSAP
Method: Kinetics of Benzoyl-Phe-Ala-Pro Hydrolysis
The apparent Km for the ACE catalyzed hydrolysis of benzoyl-Phe-Ala-Pro was measured in the following manner. […] Guinea pig serum was diluted 1:1000 to provide the enzyme. A mixture of 50 μl diluted serum and 50 μl of substrate, diluted in the reaction buffer to provide the appropriate substrate concentration for each experiment, was incubated at 37° C. for 10 minutes. At the end of the incubation, 1.0 ml of 0.1 M HCl was added to stop the reaction. The reaction mixture was then extracted with 1.0 ml toluene, and a 0.5 ml aliquot of the toluene phase was counted in a scintillation counter.

[5] = Extraction from the acidified reaction mixture into organic solvent; assay type: physicochemical
Method: as §1

Sequence of ACE (Homo sapiens, UniProt P12821) (P12821 30-1306, species assumed): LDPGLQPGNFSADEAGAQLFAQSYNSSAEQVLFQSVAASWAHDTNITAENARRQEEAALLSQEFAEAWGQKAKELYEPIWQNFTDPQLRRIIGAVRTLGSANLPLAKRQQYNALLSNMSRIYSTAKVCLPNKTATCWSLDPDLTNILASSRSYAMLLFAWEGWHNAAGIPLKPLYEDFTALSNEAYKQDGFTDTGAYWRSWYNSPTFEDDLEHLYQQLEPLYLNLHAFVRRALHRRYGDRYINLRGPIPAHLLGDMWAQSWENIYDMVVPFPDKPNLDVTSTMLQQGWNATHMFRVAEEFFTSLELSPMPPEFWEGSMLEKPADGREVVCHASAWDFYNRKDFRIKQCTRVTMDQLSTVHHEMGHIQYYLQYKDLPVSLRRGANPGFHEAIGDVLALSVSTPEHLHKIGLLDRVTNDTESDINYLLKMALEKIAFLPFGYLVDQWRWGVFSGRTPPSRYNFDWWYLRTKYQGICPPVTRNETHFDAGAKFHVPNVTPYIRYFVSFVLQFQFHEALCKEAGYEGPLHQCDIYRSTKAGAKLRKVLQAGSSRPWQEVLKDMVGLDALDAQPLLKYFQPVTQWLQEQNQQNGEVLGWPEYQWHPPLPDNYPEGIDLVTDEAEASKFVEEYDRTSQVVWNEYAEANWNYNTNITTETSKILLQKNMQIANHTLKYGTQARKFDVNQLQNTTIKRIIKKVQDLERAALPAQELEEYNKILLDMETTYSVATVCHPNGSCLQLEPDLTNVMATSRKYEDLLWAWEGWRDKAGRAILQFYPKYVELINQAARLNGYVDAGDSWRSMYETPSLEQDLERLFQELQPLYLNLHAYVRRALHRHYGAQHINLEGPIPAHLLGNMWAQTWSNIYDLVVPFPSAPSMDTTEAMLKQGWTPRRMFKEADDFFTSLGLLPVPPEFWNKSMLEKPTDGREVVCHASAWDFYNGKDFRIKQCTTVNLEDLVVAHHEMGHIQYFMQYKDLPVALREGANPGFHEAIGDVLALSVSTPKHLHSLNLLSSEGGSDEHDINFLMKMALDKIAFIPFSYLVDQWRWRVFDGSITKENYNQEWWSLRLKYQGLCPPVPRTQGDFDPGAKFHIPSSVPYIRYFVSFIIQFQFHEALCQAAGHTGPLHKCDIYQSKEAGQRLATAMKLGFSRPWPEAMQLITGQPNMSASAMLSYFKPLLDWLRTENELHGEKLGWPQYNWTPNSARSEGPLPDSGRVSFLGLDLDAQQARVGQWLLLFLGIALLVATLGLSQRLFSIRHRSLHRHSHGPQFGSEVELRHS

| Compound | competitive substrate of ACE (ACE [1]) | substrate for the enzyme (ACE [2]) | cleavage in the presence of chloride (ACE [2]; vs. buffer of undisclosed composition) | hydrolysis in the absence of any added salt (ACE [3]) | sensitivity relative to the sulfate-stimulated HipHisLeu assay (ACE [4]) | sensitivity relative to the assay using ^3 H-HipGlyGly (ACE [4]; radioactivity of remnant product, HipHisLeu assay sulfate stimulated) | Km (Guinea pig serum ACE) | extraction into ethyl acetate ([5]; acidified with dilute hydrochloric acid) | fraction entering the toluene phase ([5]; toluene and acidified reaction mixture in approximately equal volumes, room temperature) |
| --- | --- | --- | --- | --- | --- | --- | --- | --- | --- |
| NC(N)=NCCC[C@H](NC(=O)[C@H](Cc1ccccc1)NC(=O)[C@@H]1CCCN1C(=O)[C@H](CO)NC(=O)[C@H](Cc1ccccc1)NC(=O)CNC(=O)[C@@H]1CCCN1C(=O)[C@@H]1CCCN1C(=O)[C@@H](N)CCCN=C(N)N)C(=O)O [bradykinin, ArgProProGlyPheSerProPheArg] (H-RPPGFSPFR-OH) | competitive substrates |  |  |  |  |  |  |  |  |
| <GluLysTrpAlaPro ([pGlu]KWAP) [BPP5a] | competitive substrates | could serve as a substrate for the enzyme | proceeded more slowly in the presence of chloride |  |  |  |  |  |  |
| ^3 H-benzoylPheAlaPro |  |  |  | ACE will hydrolyze | about 10 times | approximately 200 times | 14 µM | extracted almost quantitatively into ethyl acetate | 6% |
